Test results taken from patent publication US20230021483A1, “[…] […] METHOD AND CLASSIFICATION OF PHARMACEUTICAL COMPONENTS BY USING TRANSCRIPTOMES” (National Institutes of Biomedical Innovation, Health and …, priority 2016, published 2023).
“Also recorded” adds a separate entry of the source.

Legend:
[1] = system: preferentially upregulated genes in LV, SP, LN; assay: Z-score-based differential gene expression analysis (adjuvant group- or adjuvant-associated genes, 40 module mapping, TargetMine annotation); type: in vivo, C57BL/6 mice
How it was run: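 Per-sample fold-change values converted to gene-wise z-scores within each organ's data set, then triplicate z-scores summed per adjuvant. Genes with summed score >3 taken as preferentially expressed; gene groups defined by combined per-adjuvant z-score thresholds (z>1 to z>3) specific to each organ.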

[2] = system: LV, SP and LNs; assay: Whole organ transcriptome across organs (adjuvant gene space): gene responses and adjuvant grouping; type: in vivo, C57BL/6 mice; settings: hierarchical clustering; LV, SP and/or LNs
[3] = system: inguinal lymph nodes (LN); assay: Whole organ transcriptome (GeneChip microarray) of draining inguinal lymph nodes 6 h after adjuvant administration: sDEGs, gene modules, hierarchical clustering; type: in vivo, C57BL/6 mice; for adjuvant group (cluster) in LN: key: G1 (interferon signaling); G2 (metabolism of lipids and lipoproteins); G3 (response to stress); G4 (response to wounding); G5 (phosphate-containing compound metabolic process); G6 (phagosome)
[4] = literature reports; cited from earlier work
[5] = system: spleen (SP); assay: Whole organ transcriptome (GeneChip microarray) of spleen 6 h after adjuvant administration: sDEGs, hierarchical clustering; type: in vivo, C57BL/6 mice; settings: hierarchical clustering; note: key: G1 (interferon signaling); G2 (metabolism of lipids and lipoproteins); G3 (response to stress); G4 (response to wounding); G5 (phosphate-containing compound metabolic process); G6 (phagosome)

Nc1nc2c(ncn2[C@@H]2O[C@@H]3COP(=O)(O)O[C@H]4[C@@H](O)[C@H](n5cnc6c(=O)[nH]c(N)nc65)O[C@@H]4COP(=O)(O)O[C@H]3[C@H]2O)c(=O)[nH]1 [cdiGMP, Cyclic diguanylate monophosphate]
Tor1aip2 1418116_at (Group G1, Modules 20) ([1]; ID, LV, sample x3): 2.19 | Tor1aip2 1435526_at (Group G1, Modules 20) ([1]; ID, LV, sample x3): 1.54 | Trim12a 1437432_a_at (Group G1, Modules 20) ([1]; ID, LV, sample x3): 1.46 | Uba7 1426970_a_at (Group G1, Modules 20) ([1]; ID, LV, sample x3): 1.41 | interferon induction relative to adjuvants targeting the same receptor ([1]; LN, z-scores and 40 module mapping): strongest interferon inducer; also recorded: induced more interferon responses in vivo than the other sting ligands | preference, 1417252_at Ptgs2 ([1]; among cdiGMP/cGAMP/DMXAA, LN): cdiGMP | preference, 1417263_at Ptgs2 ([1]; among cdiGMP/cGAMP/DMXAA, LN): cdiGMP | preference, 1418424_at Tnfaip6 ([1]; among cdiGMP/cGAMP/DMXAA, LN): cdiGMP | preference, 1419132_at Tfr2 ([1]; among cdiGMP/cGAMP/DMXAA, LN): cdiGMP | preference, 1419508_at Ripk1 ([1]; among cdiGMP/cGAMP/DMXAA, LN): cdiGMP | preference, 1419534_at Olr1 ([1]; among cdiGMP/cGAMP/DMXAA, LN): cdiGMP | preference, 1419721_at Niacr1 ([1]; among cdiGMP/cGAMP/DMXAA, LN): cdiGMP | preference, 1421457_a_at Samsn1 ([1]; among cdiGMP/cGAMP/DMXAA, LN): cdiGMP | preference, 1421473_at Il1a ([1]; among cdiGMP/cGAMP/DMXAA, LN): cdiGMP | preference, 1421578_at Ccl4 ([1]; among cdiGMP/cGAMP/DMXAA, LN): cdiGMP | preference, 1421679_a_at Cdkn1a ([1]; among cdiGMP/cGAMP/DMXAA, LN): cdiGMP | preference, 1422054_a_at 5kil ([1]; among cdiGMP/cGAMP/DMXAA, LN): cdiGMP | preference, 1422305_at Ifnb1 ([1]; among cdiGMP/cGAMP/DMXAA, LN): cdiGMP | preference, 1423028_at Ifna2 ([1]; among cdiGMP/cGAMP/DMXAA, LN): cdiGMP | preference, 1424638_at Cdkn1a ([1]; among cdiGMP/cGAMP/DMXAA, LN): cdiGMP | preference, 1425687_at Cflar ([1]; among cdiGMP/cGAMP/DMXAA, LN): cdiGMP | preference, 1425837_a_at Ccrn4l ([1]; among cdiGMP/cGAMP/DMXAA, LN): cdiGMP | preference, 1427736_a_at Ccrl2 ([1]; among cdiGMP/cGAMP/DMXAA, LN): cdiGMP | preference, 1428027_at LOC100653389 ([1]; among cdiGMP/cGAMP/DMXAA, LN): cdiGMP | preference, 1428735_at Cd69 ([1]; among cdiGMP/cGAMP/DMXAA, LN): cdiGMP | preference, 1433508_at Klf6 ([1]; among cdiGMP/cGAMP/DMXAA, LN): cdiGMP | preference, 1434350_at Csrnp1 ([1]; among cdiGMP/cGAMP/DMXAA, LN): cdiGMP | preference, 1436387_at C330006P03Rik///Homer1 ([1]; among cdiGMP/cGAMP/DMXAA, LN): cdiGMP | preference, 1439349_at Sbno2 ([1]; among cdiGMP/cGAMP/DMXAA, LN): cdiGMP | preference, 1439680_at Tnfsf10 ([1]; among cdiGMP/cGAMP/DMXAA, LN): cdiGMP | preference, 1439981_at Tespa1 ([1]; among cdiGMP/cGAMP/DMXAA, LN): cdiGMP | preference, 1441843_s_at 5230400M03Rik ([1]; among cdiGMP/cGAMP/DMXAA, LN): cdiGMP | preference, 1442556_at --- ([1]; among cdiGMP/cGAMP/DMXAA, LN): cdiGMP | preference, 1443414_at C78513 ([1]; among cdiGMP/cGAMP/DMXAA, LN): cdiGMP | preference, 1444010_at Eif4e ([1]; among cdiGMP/cGAMP/DMXAA, LN): cdiGMP | preference, 1444598_at --- ([1]; among cdiGMP/cGAMP/DMXAA, LN): cdiGMP | preference, 1445534_at --- ([1]; among cdiGMP/cGAMP/DMXAA, LN): cdiGMP | preference, 1446245_at --- ([1]; among cdiGMP/cGAMP/DMXAA, LN): cdiGMP | preference, 1448325_at Ppp1r15a ([1]; among cdiGMP/cGAMP/DMXAA, LN): cdiGMP | preference, 1448724_at Cish ([1]; among cdiGMP/cGAMP/DMXAA, LN): cdiGMP | preference, 1449169_at Has2 ([1]; among cdiGMP/cGAMP/DMXAA, LN): cdiGMP | preference, 1449311_at Bach1 ([1]; among cdiGMP/cGAMP/DMXAA, LN): cdiGMP | preference, 1450297_at Il6 ([1]; among cdiGMP/cGAMP/DMXAA, LN): cdiGMP | preference, 1451340_at Arid5a ([1]; among cdiGMP/cGAMP/DMXAA, LN): cdiGMP | preference, 1453636_at Pcgf5 ([1]; among cdiGMP/cGAMP/DMXAA, LN): cdiGMP | preference, 1453851_a_at Gadd45g ([1]; among cdiGMP/cGAMP/DMXAA, LN): cdiGMP | preference, 1455197_at Rnd1 ([1]; among cdiGMP/cGAMP/DMXAA, LN): cdiGMP | preference, 1455899_x_at Socs3 ([1]; among cdiGMP/cGAMP/DMXAA, LN): cdiGMP | preference, 1457404_at Nfkbiz ([1]; among cdiGMP/cGAMP/DMXAA, LN): cdiGMP | preference, 1457888_at --- ([1]; among cdiGMP/cGAMP/DMXAA, LN): cdiGMP | preference, 1457944_at --- ([1]; among cdiGMP/cGAMP/DMXAA, LN): cdiGMP | preference, 1458376_at B930025B16Rik ([1]; among cdiGMP/cGAMP/DMXAA, LN): cdiGMP | preference, 1458589_at --- ([1]; among cdiGMP/cGAMP/DMXAA, LN): cdiGMP | preference, 1459144_at --- ([1]; among cdiGMP/cGAMP/DMXAA, LN): cdiGMP | adjuvant group-associated biological features ([1]; z-score selected genes, TargetMine and IPA upstream cytokine analyses): strongly associated with type I and type II interferon responses | adjuvant group (cluster) within the adjuvant gene space [2]: group (G) 1 | module M40^LN (immune system process; dendritic cells, macrophages, neutrophils, stromal cells) ([3]; LN, 6 h): strongly induced | adjuvant group (cluster) in LN ([3]; hierarchical clustering, lymph node): G1 | Th response induced [4]: appears to induce Th1 responses | adjuvant group (cluster) in SP [5]: G1
